Test results: patent US20250115597A1, “TYK2 INHIBITORS AND COMPOSITIONS AND METHODS THEREOF” (LYNK PHARMACEUTICALS CO. LTD., priority 2021, published 2025)
Like-named read-outs stand apart in the source and are kept apart here. One block for each molecule: values may come before it.

Tests used:
[1] = molecular target: T1, Ba/F3-FL-TYK2-P760L cells (Homo sapiens, UniProt P29597, P760L, cells depend on it); assay: Anti-proliferative assay, Ba/F3-FL-TYK2-P760L cells (Cell-Titer Glo); format: cell-based; details: 72 h, read-out: BaF3-FL-T2P760L IC50
T1 construct: BaF3-FL-T2P760L (nM)
T1 sequence (P29597 whole entry P760L): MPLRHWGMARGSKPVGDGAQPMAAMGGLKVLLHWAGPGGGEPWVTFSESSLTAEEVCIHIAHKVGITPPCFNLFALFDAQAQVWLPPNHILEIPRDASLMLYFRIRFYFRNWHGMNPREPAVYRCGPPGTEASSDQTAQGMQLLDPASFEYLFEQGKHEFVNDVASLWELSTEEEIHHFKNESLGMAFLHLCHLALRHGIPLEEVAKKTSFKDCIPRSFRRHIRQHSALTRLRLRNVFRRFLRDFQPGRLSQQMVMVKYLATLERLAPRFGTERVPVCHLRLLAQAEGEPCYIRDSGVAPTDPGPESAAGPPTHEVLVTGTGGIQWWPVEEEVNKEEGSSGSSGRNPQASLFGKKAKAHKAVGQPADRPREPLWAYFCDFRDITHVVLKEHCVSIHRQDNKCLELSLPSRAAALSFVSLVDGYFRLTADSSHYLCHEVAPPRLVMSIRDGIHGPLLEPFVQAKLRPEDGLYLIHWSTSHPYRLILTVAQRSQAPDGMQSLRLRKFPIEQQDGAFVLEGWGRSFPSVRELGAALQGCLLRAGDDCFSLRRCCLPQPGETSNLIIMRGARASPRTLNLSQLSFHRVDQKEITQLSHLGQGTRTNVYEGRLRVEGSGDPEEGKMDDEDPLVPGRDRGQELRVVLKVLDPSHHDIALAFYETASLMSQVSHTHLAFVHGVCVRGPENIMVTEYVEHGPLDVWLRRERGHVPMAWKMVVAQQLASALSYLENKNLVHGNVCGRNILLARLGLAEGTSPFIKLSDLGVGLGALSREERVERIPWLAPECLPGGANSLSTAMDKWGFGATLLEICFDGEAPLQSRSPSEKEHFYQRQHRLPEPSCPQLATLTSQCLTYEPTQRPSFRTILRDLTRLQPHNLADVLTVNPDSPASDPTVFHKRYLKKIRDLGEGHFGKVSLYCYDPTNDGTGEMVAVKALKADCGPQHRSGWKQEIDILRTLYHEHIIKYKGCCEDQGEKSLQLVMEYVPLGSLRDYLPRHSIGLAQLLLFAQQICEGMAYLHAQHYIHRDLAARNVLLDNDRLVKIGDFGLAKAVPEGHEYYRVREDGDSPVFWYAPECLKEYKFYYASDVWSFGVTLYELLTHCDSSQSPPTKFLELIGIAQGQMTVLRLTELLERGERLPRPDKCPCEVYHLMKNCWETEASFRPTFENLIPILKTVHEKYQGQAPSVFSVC
In short: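 Compound exposure ran 72 h at 37 °C in 5% CO2 across nine 3-fold concentrations from a 20 μM top dose, added 24 h after seeding 2000 cells/well.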

[2] = Microsomal metabolic stability assay; format: in vitro ADME; details: pH 7.4, 0.5 mg/mL protein, 1 μM compound
In short: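 Parent loss was tracked by LC/MS/MS at 0, 5, 15, 30 and 45 min, with half-life derived from the ln(% remaining)–time slope. Incubation at 37 °C, pH 7.4 phosphate/EDTA buffer: 0.5 mg/mL microsomes, 1 μM compound, NADPH-regenerated (2 mM).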

[3] = Plasma protein binding by equilibrium dialysis; format: in vitro ADME; details: human plasma, equilibrium dialysis 5 hours at 37° C.; read-out: % Bound (human) (converted)
Procedure: Plasma Protein Binding by Equilibrium Dialysis
Aliquots of test compound stock solution and warfarin stock solution were spiked into plasma to give the matrix solutions with theoretical concentrations of test compound at 0.2 and 2 μM or warfarin at 2 μM. Immediately transfer 50 μL of the spiked plasma solution suspension to a 96-well plate to act as T=0 control sample. Assemble the dialysis set up following the manufacturer's instructions. Load cells with 150 μL of plasma sample and dialyzed against equal volume of dialysis buffer (PBS). The assay is performed in duplicate. Cover the unit with gas permeable lid and incubate for 5 hours at 37° C. at 100 rpm in a constant temperature shaking box. At the end of incubation, remove lid and pipette 50 μL of post-dialysis samples from both buffer and plasma solution chambers into separated 96-well plate for analysis, respectively. Add 50 μL of plasma solution to the buffer samples, and an equal volume of PBS to the collected plasma solution samples. Shake the plate at 1000 rpm for 2 minutes and add 600 μL of 50% ACN/MeOH containing an appropriate internal standard (IS) to precipitate protein and release compound. Vortex at 1000 rpm for 10 minutes. Centrifuge for 10 minutes at 4000 rpm. Then transfer 75 μL of the supernatant to new 96-well plates for analysis. Add 150 μL of distilled water to each sample and mix for analysis by LC-MS/MS.
The free rate (% Unbound), binding rate (% Bound), and recovery rate (% Recovery) of the compound are calculated as follows: […]

TYK2-JH2 domain = molecular target: T2, TYK2-JH2 domain (Homo sapiens, UniProt P29597); assay: Binding activity test for JH2 domain of TYK2 (Tb-antibody/tracer FRET); details: for JAK1/TYK2 selectivity: ratio JAK1-JH2 IC50 / TYK2-JH2 IC50
T2 construct: IC50 on JH2 domain activity (nM)
T2 sequence (P29597 589-875 limits assumed): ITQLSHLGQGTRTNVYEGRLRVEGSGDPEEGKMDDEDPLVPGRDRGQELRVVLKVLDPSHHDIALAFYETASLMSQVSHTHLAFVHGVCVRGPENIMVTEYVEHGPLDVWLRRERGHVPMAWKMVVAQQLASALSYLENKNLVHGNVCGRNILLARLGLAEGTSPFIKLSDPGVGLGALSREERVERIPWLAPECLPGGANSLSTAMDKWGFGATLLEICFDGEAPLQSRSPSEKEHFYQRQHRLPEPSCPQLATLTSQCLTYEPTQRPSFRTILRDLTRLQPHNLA
In short: (§1)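 FRET read-out after 60 min at 25° C plus overnight at 4° C; tracer displacement detected via Tb-labelled antibody on the JH2 domain. Dose-response used 11 points at 3-fold dilution.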

[4] = Hepatocytes metabolic stability assay; format: in vitro ADME; details: cryopreserved hepatocytes, human hepatocytes, 1.0×10^6 cells/mL
Procedure: Hepatocytes Metabolic Stability Assay
The vials of cryopreserved hepatocytes were removed from the liquid nitrogen container and immediately immersed in a 37° C. water bath for approximately 2 min. The melted ice pellets were transferred into tubes containing 50 mL of pre-warmed thawing medium and mixed well by gently inverting the tubes, and then centrifuged at 500 rpm for 3 minutes at room temperature. The supernatants were discarded, and cell pellets were re-suspended by adding appropriate volumes of pre-warmed incubation medium. The cells viability of each species was determined using Trypan Blue exclusion. Add 50 μL of pre-warmed 2× dosing solution to the wells designated for different time points. Then 50 μL of cells suspension (2×10^6 cells/mL) were added into appropriate wells at corresponding time points of T15, T30, T60, T120. Start timing and put the plate in an incubator at 37° C. For TO sample, add 300 μL of ACN containing internal standard to the wells, mix gently, then add 50 μL of pre-warmed hepatocytes solution (2×10^6 cells/mL). The concentration of test compound was 1 μM and 1.0×10^6 cells/mL in the final incubation. At each corresponding time point, test and control compounds reaction samples were stopped by adding 300 μL acetonitrile containing internal standard. All sample plates were thoroughly mixed and centrifuged at 5000×g for 15 minutes. The supernatants were diluted at ratio of 1:1 with ultra-pure water for test and positive controls. Then submitted for LC-MS/MS analysis.
The analyte/internal standard peak area ratios were converted to percentage remaining with the following equation: […]
The in vitro elimination constant, k of test compounds and control compounds were calculated from a log linear plot of % Remaining versus time, then the half-life (T1/2), the estimation of the in vitro hepatic intrinsic clearance (CLint) values were calculated from substrate disappearance rate in hepatocytes incubation: […]

JAK1-JH2 domain = molecular target: T3, JAK1-JH2 domain (Homo sapiens, UniProt P23458); assay: Binding activity test for JH2 domain of JAK1 (Tb-antibody/tracer FRET)
T3 construct: IC50 on JH2 domain activity (nM)
T3 sequence (P23458 583-855 limits assumed): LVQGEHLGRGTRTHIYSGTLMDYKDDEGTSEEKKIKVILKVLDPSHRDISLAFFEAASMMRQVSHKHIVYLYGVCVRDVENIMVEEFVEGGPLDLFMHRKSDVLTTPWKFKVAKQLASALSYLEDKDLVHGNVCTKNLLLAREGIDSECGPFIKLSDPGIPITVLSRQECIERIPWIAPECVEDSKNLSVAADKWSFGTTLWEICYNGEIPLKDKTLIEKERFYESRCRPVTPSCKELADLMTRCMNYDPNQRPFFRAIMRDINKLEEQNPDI
In short: as §1

pSTAT1 = assay: Phosphorylation inhibition of STAT in human whole blood, IFN-alpha stimulated (flow cytometry); format: cell-based; details: 20 min; human whole blood, IFN-alpha 20 mins, CD3 cells; read-out: IC50 on pSTAT1 inhibition in h WB
Procedure: Phosphorylation Inhibition of STAT in Human PBMC and Human Whole Blood Testing:
The inhibitory potential of test articles in human PBMC and human whole blood assay was evaluated by the method of flow cytometry.
IFN-alpha will activate JAK1 and TYK2 kinase in T cells by binding to IFN receptors, and then lead to phosphorylation of STAT1 and STAT2. The phosphorylated STAT1 enter nuclear and promote transcription and expression of IFN-gamma. To evaluate the efficacy of TYK2i in T cells, freshly prepared human PBMC or freshly collected human whole blood will be stimulated with certain unit of human IFN-alpha (Universal Type I IFN(1MU), R&D, 11200-2) for 20 mins in incubator. After stimulation, fix cells with Phosflow™ Fix Buffer I (BD, 557870), and then collect fixed cells by centrifugation (500 g, 8 min). Wash cells once with pre-cooled PBS, and then permeabilize cells with cold Perm Buffer III buffer (BD, 558050) for 45 mins on ice. Collect cells by centrifugation (600 g, 8 min) and washed twice with cold PBS. Stain cells with anti-human CD3 (FITC Mouse Anti-Human CD3, BD, 555332) and anti-pSTAT1_Y701(Alexa Fluor 647 Mouse Anti-Stat1 (pY701), BD, 612597) antibodies. Detect pSTAT1 by flow cytometry (CytoFlex S) and analyze data with FlowJo and GraphPad Prism 8 software. IC50 values of test articles were determined using 4-parameter logistic equation.

[5] = dog liver microsomes, read-out: Dog LM Clint
[6] = dog liver microsomes, read-out: Dog LM T½
[7] = human liver microsomes, read-out: Human LM Clint
[8] = human liver microsomes, read-out: Human LM T½
[9] = rat liver microsomes, read-out: Rat LM Clint
[10] = rat liver microsomes, read-out: Rat LM T½

SMILES: CNC(=O)c1cnc(NC(=O)C2CC2)cc1Nc1nn(C)c2ccn(CC(F)(F)F)c(=O)c12 [Example 52, 6-(Cyclopropanecarboxamido)-N-methyl-4-((1-methyl-4-oxo-5-(2,2,2-trifluoroethyl)-4,5-dihydro-1H-pyrazolo[4,3-c]pyridin-3-yl)amino)nicotinamide]
GI50 [1]: 127 nM
microsomal CLint at 1 μM [2, 5]: 11.1 µL/min/mg
half-life at 1 μM [2, 6]: 2.08 h
microsomal CLint at 1 μM [2, 7]: 8.05 µL/min/mg
half-life at 1 μM [2, 8]: 2.87 h
microsomal CLint at 1 μM [2, 9]: 30.8 µL/min/mg
half-life at 1 μM [2, 10]: 0.75 h
fraction unbound at 5 h [3]: 0.041

SMILES: [2H]C([2H])([2H])NC(=O)c1cnc(NC(=O)C2CC2)cc1Nc1nn(C)c2ccn(CC(F)(F)F)c(=O)c12 [Example 53, 6-(Cyclopropanecarboxamido)-N-(methyl-d3)-4-((1-methyl-4-oxo-5-(2,2,2-trifluoroethyl)-4,5-dihydro-1H-pyrazolo[4,3-c]pyridin-3-yl)amino)nicotinamide]
IC50 (TYK2-JH2 domain): 0.293 nM
GI50 [1]: 144 nM
fraction unbound at 5 h [3]: 0.286

SMILES: [2H]C([2H])([2H])NC(=O)c1cnc(NC(=O)C2CC2)cc1Nc1nn(CCCOC)c2ccn(CC(F)(F)F)c(=O)c12 [Example 96, 6-(Cyclopropanecarboxamido)-4-((1-(3-methoxypropyl)-4-oxo-5-(2,2,2-trifluoroethyl)-4,5-dihydro-1H-pyrazolo[4,3-c]pyridin-3-yl)amino)-N-(methyl-d3)nicotinamide]
GI50 [1]: 351 nM
microsomal CLint at 1 μM [2, 7]: 16.7 µL/min/mg
half-life at 1 μM [2, 8]: 1.38 h
fraction unbound at 5 h [3]: 0.171

SMILES: [2H]C([2H])([2H])NC(=O)c1cnc(NC(=O)C2CC2)cc1Nc1ccc2cnn(C([2H])([2H])C([2H])([2H])[2H])c2c1OC([2H])([2H])[2H] [Example 134, 6-(Cyclopropanecarboxamido)-4-((1-(ethyl-d5)-7-(methoxy-d3)-1H-indazol-6-yl)amino)-N-(methyl-d3)nicotinamide]
GI50 [1]: 61.4 nM
CLint scaled at 1 μM ([4]; read-out: Human hepatocyte Clint(liver)): 18 mL/min/kg
half-life at 1 μM ([4]; read-out: Human hepatocyte stability T1/2): 1.64 h
fraction unbound at 5 h [3]: 0.049

SMILES: [2H]C([2H])([2H])NC(=O)c1cnc(NC(=O)C2CC2)cc1Nc1csc2ncn(CC)c(=O)c12 [Example 216, 6-(Cyclopropanecarboxamido)-4-((3-ethyl-4-oxo-3,4-dihydrothieno[2,3-d]pyrimidin-5-yl)amino)-N-(methyl-d3)nicotinamide]
IC50 (TYK2-JH2 domain): 0.525 nM
GI50 [1]: 181 nM
fraction unbound at 5 h [3]: 0.041

SMILES: [2H]C([2H])([2H])NC(=O)c1cnc(NC(=O)C2CC2)cc1Nc1ccn2ncc(COC)c2c1OC [Example 226, 6-(Cyclopropanecarboxamido)-4-((4-methoxy-3-(methoxymethyl)pyrazolo[1,5-a]pyridin-5-yl)amino)-N-(methyl-d3)nicotinamide]
IC50 (TYK2-JH2 domain): 1.46 nM
JAK1/TYK2 selectivity (TYK2-JH2 domain): 38.8
IC50 (JAK1-JH2 domain): 56.5 nM
GI50 [1]: 221 nM
fraction unbound at 5 h [3]: 0.126

SMILES: CCn1ncc2ccc(Nc3cc(NC(=O)C4CC4)ncc3C(=O)NC)c(OC)c21 [Example 228, 6-(Cyclopropanecarboxamido)-4-((1-ethyl-7-methoxy-1H-indazol-6-yl)amino)-N-methylnicotinamide]
IC50 (TYK2-JH2 domain): 0.288 nM
JAK1/TYK2 selectivity (TYK2-JH2 domain): 22.5
IC50 (JAK1-JH2 domain): 6.48 nM
GI50 [1]: 29.3 nM
IC50 (pSTAT1): 245 nM
fraction unbound at 5 h [3]: 0.04

Continued, values first:

GI50 [1]: 172 nM
fraction unbound at 5 h [3]: 0.061
SMILES: CNC(=O)c1cnc(NC(=O)C2CC2)nc1Nc1cccc(-c2ncn(C)n2)c1OC [Example 65, 2-(Cyclopropanecarboxamido)-4-((2-methoxy-3-(1-methyl-1H-1,2,4-triazol-3-yl)phenyl)amino)-N-methylpyrimidine-5-carboxamide]

IC50 (TYK2-JH2 domain): 0.948 nM
GI50 [1]: 68.4 nM
microsomal CLint at 1 μM [2, 5]: < 7.4 µL/min/mg
half-life at 1 μM [2, 6]: > 3.11 h
microsomal CLint at 1 μM [2, 7]: 15.2 µL/min/mg
half-life at 1 μM [2, 8]: 1.52 h
microsomal CLint at 1 μM [2, 9]: 26.4 µL/min/mg
half-life at 1 μM [2, 10]: 0.875 h
fraction unbound at 5 h [3]: 0.039
SMILES: [2H]C([2H])([2H])NC(=O)c1cnc(NC(=O)C2CC2)cc1Nc1cn(C)c2c(F)cn(CC(F)F)c(=O)c12 [Example 158, 6-(Cyclopropanecarboxamido)-4-((5-(2,2-difluoroethyl)-7-fluoro-1-methyl-4-oxo-4,5-dihydro-1H-pyrrolo[3,2-c]pyridin-3-yl)amino)-N-(methyl-d3)nicotinamide]

IC50 (TYK2-JH2 domain): 0.868 nM
JAK1/TYK2 selectivity (TYK2-JH2 domain): 17.5
IC50 (JAK1-JH2 domain): 15.2 nM
GI50 [1]: 565 nM
fraction unbound at 5 h [3]: 0.346
SMILES: [2H]C([2H])([2H])NC(=O)c1cnc(NC(=O)C2CC2)cc1Nc1ccn2ncc(CO)c2c1OC [Example 225, 6-(Cyclopropanecarboxamido)-4-((3-(hydroxymethyl)-4-methoxypyrazolo[1,5-a]pyridin-5-yl)amino)-N-(methyl-d3)nicotinamide]
